Results taken from the supplement of paper PMC10307832.

Legend:
Experiment in all cases: relative viability (nuclei count vs DMSO), 5 days (fraction); higher = more cells survive
COR-L 105 = tested on: COR-L 105
Summary of the method: (§1)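 Relative viability equals treated-well nuclei counts divided by vehicle-well nuclei counts. Counts came from 4× images of lung cancer cell lines grown in 1536-well plates for 5 days after pin-tool dosing on the day after seeding. Dosing used one drug alone or a fixed anchor-drug dose plus five library-drug doses (not always all listed) in √10 steps, and values are medians of duplicate plates.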

EMC-BAC-2 = tested on: EMC-BAC-2
Summary of the method: as §1

NCI-H727 = tested on: NCI-H727
Summary of the method: as §1

NCI-H1395 = tested on: NCI-H1395
Summary of the method: as §1

CAL-12T = tested on: CAL-12T
Summary of the method: as §1

SK-LU-1 = tested on: SK-LU-1
Summary of the method: as §1

HCC-366 = tested on: HCC-366
Summary of the method: as §1

HOP-62 = tested on: HOP-62
Summary of the method: as §1

NCI-H1437 = tested on: NCI-H1437
Summary of the method: as §1

NCI-H1755 = tested on: NCI-H1755
Summary of the method: as §1

HARA = tested on: HARA
Summary of the method: as §1

A-427 = tested on: A-427
Summary of the method: as §1

NCI-H1792 = tested on: NCI-H1792
Summary of the method: as §1

NCI-H2228 = tested on: NCI-H2228
Summary of the method: as §1

NCI-H2009 = tested on: NCI-H2009
Summary of the method: as §1

NCI-H1915 = tested on: NCI-H1915
Summary of the method: as §1

NCI-H23 = tested on: NCI-H23
Summary of the method: as §1

SW 1573 = tested on: SW 1573
Summary of the method: as §1

NCI-H460 = tested on: NCI-H460
Summary of the method: as §1

HCC-827 = tested on: HCC-827
Summary of the method: as §1

Cc1sc2c(c1C)C(c1ccc(Cl)cc1)=N[C@@H](CC(=O)OC(C)(C)C)c1nnc(C)n1-2 [JQ1] + CS(=O)(=O)CCNCc1ccc(-c2ccc3ncnc(Nc4ccc(OCc5cccc(F)c5)c(Cl)c4)c3c2)o1 [Lapatinib] (partner 2 µM)
relative viability (COR-L 105; first compound 0.04 µM): 0.291
relative viability (COR-L 105; first compound 0.1265 µM): 0.279
relative viability (COR-L 105; first compound 0.4 µM): 0.323
relative viability (COR-L 105; first compound 1.265 µM): 0.346
relative viability (COR-L 105; first compound 4 µM): 0.361
relative viability (EMC-BAC-2; first compound 0.04 µM): 0.841
relative viability (EMC-BAC-2; first compound 0.1265 µM): 0.905
relative viability (EMC-BAC-2; first compound 0.4 µM): 0.949
relative viability (EMC-BAC-2; first compound 1.265 µM): 0.551
relative viability (EMC-BAC-2; first compound 4 µM): 0.495
relative viability (NCI-H727; first compound 0.04 µM): 0.727
relative viability (NCI-H727; first compound 0.1265 µM): 0.695
relative viability (NCI-H727; first compound 0.4 µM): 0.506
relative viability (NCI-H727; first compound 1.265 µM): 0.361
relative viability (NCI-H727; first compound 4 µM): 0.469
relative viability (NCI-H1395; first compound 0.04 µM): 0.931
relative viability (NCI-H1395; first compound 0.1265 µM): 0.733
relative viability (NCI-H1395; first compound 0.4 µM): 0.935
relative viability (NCI-H1395; first compound 1.265 µM): 0.492
relative viability (NCI-H1395; first compound 4 µM): 0.487
relative viability (CAL-12T; first compound 0.04 µM): 0.748
relative viability (CAL-12T; first compound 0.4 µM): 0.541
relative viability (CAL-12T; first compound 1.265 µM): 0.383
relative viability (CAL-12T; first compound 4 µM): 0.463
relative viability (SK-LU-1; first compound 0.04 µM): 0.891
relative viability (SK-LU-1; first compound 0.1265 µM): 0.709
relative viability (SK-LU-1; first compound 0.4 µM): 0.838
relative viability (SK-LU-1; first compound 1.265 µM): 0.388
relative viability (SK-LU-1; first compound 4 µM): 0.271
relative viability (HCC-366; first compound 0.04 µM): 1.02
relative viability (HCC-366; first compound 0.4 µM): 0.877
relative viability (HCC-366; first compound 1.265 µM): 0.461
relative viability (HCC-366; first compound 4 µM): 0.472
relative viability (HOP-62; first compound 0.04 µM): 1.07
relative viability (HOP-62; first compound 0.1265 µM): 0.724
relative viability (HOP-62; first compound 0.4 µM): 0.636
relative viability (HOP-62; first compound 1.265 µM): 0.241
relative viability (HOP-62; first compound 4 µM): 0.126
relative viability (NCI-H1437; first compound 0.04 µM): 0.72
relative viability (NCI-H1437; first compound 0.1265 µM): 0.463
relative viability (NCI-H1437; first compound 0.4 µM): 0.403
relative viability (NCI-H1437; first compound 1.265 µM): 0.194
relative viability (NCI-H1437; first compound 4 µM): 0.216
relative viability (NCI-H1755; first compound 0.04 µM): 1.06
relative viability (NCI-H1755; first compound 0.1265 µM): 0.735
relative viability (NCI-H1755; first compound 0.4 µM): 1.05
relative viability (NCI-H1755; first compound 1.265 µM): 0.853
relative viability (NCI-H1755; first compound 4 µM): 0.607
relative viability (HARA; first compound 0.04 µM): 0.871
relative viability (HARA; first compound 0.1265 µM): 0.559
relative viability (HARA; first compound 0.4 µM): 0.642
relative viability (HARA; first compound 1.265 µM): 0.317
relative viability (HARA; first compound 4 µM): 0.165
relative viability (A-427; first compound 0.04 µM): 0.925
relative viability (A-427; first compound 0.1265 µM): 0.916
relative viability (A-427; first compound 0.4 µM): 1.08
relative viability (A-427; first compound 1.265 µM): 1.02
relative viability (A-427; first compound 4 µM): 0.696
relative viability (NCI-H1792; first compound 0.04 µM): 0.947
relative viability (NCI-H1792; first compound 0.4 µM): 0.916
relative viability (NCI-H1792; first compound 1.265 µM): 0.896
relative viability (NCI-H1792; first compound 4 µM): 0.688
relative viability (NCI-H2228; first compound 0.04 µM): 0.902
relative viability (NCI-H2228; first compound 0.1265 µM): 0.876
relative viability (NCI-H2228; first compound 0.4 µM): 0.751
relative viability (NCI-H2228; first compound 1.265 µM): 0.374
relative viability (NCI-H2228; first compound 4 µM): 0.327
relative viability (NCI-H2009; first compound 0.04 µM): 0.961
relative viability (NCI-H2009; first compound 0.1265 µM): 0.412
relative viability (NCI-H2009; first compound 0.4 µM): 0.336
relative viability (NCI-H2009; first compound 1.265 µM): 0.285
relative viability (NCI-H2009; first compound 4 µM): 0.251
relative viability (NCI-H1915; first compound 0.04 µM): 0.976
relative viability (NCI-H1915; first compound 0.1265 µM): 0.574
relative viability (NCI-H1915; first compound 0.4 µM): 0.917
relative viability (NCI-H1915; first compound 1.265 µM): 0.582
relative viability (NCI-H1915; first compound 4 µM): 0.315
relative viability (NCI-H23; first compound 0.04 µM): 0.956
relative viability (NCI-H23; first compound 0.1265 µM): 0.943
relative viability (NCI-H23; first compound 0.4 µM): 1.09
relative viability (NCI-H23; first compound 1.265 µM): 0.301
relative viability (NCI-H23; first compound 4 µM): 0.362
relative viability (SW 1573; first compound 0.04 µM): 1.13
relative viability (SW 1573; first compound 0.1265 µM): 0.886
relative viability (SW 1573; first compound 0.4 µM): 0.881
relative viability (SW 1573; first compound 1.265 µM): 0.61
relative viability (SW 1573; first compound 4 µM): 0.512
relative viability (NCI-H460; first compound 0.04 µM): 0.887
relative viability (NCI-H460; first compound 0.1265 µM): 0.465
relative viability (NCI-H460; first compound 0.4 µM): 0.536
relative viability (NCI-H460; first compound 1.265 µM): 0.217
relative viability (NCI-H460; first compound 4 µM): 0.169
relative viability (HCC-827; first compound 0.04 µM): 0.206
relative viability (HCC-827; first compound 0.4 µM): 0.21
relative viability (HCC-827; first compound 1.265 µM): 0.189
relative viability (HCC-827; first compound 4 µM): 0.202
